# In ChEMBL document CHEMBL1150437, “Synthesis and neuraminidase inhibition studies of 4-azido, amino, and acetamido substituted sialosides” (Bioorg Med Chem Lett, 1994):
# Test system: unidentified influenza virus
# Assay: Compound was tested for inhibition of Influenza neuraminidase
# Type: functional, organism-based
row,SMILES,Ki
1,CC(=O)N[C@H]1[C@H]([C@H](O)[C@H](O)CO)O[C@@](OC[C@@H]2O[C@H](O)[C@@H](O)[C@@H](O)[C@H]2O)(C(=O)O)C[C@H]1N,150 µM
2,CC(=O)NC1C(N)CC(SC(C)C2OC(O)C(O)C(O)C2O)(C(=O)O)OC1[C@H](O)[C@H](O)CO (some centres not stated),50 µM
